*1 amine or outer side, *2 acyl side, *3 side chain or, on linkers, in order; H or OH if unused. Where a SMILES comes first, the peptide text is derived from it. Bridges are numbered along the chain shown (N, C = ends). [ ]: non-standard residue; d: D form. The star is where a group is joined. hPhe(3-Cl-4-CF3) = N[C@@H](CCc1ccc(C(F)(F)F)c(Cl)c1)C(=O)O; NPrPhe(4-CF3) = CCCN[C@@H](Cc1ccc(C(F)(F)F)cc1)C(=O)O; X45 = CCCN([C@@H](CC1CCC(F)(F)CC1)C(=O)[*:2])[*:1]; NEtPhe(4-Me) = CCN[C@@H](Cc1ccc(C)cc1)C(=O)O; NMeGly(cPent) = CN[C@H](C(=O)O)C1CCCC1; Pro(4,4-Me2) = CC1(C)CN[C@H](C(=O)O)C1; NMeNva(3-Et) = CCC(CC)[C@H](NC)C(=O)O; NMeD = CN[C@@H](CC(=O)O)C(=O)O; NMeL = CN[C@@H](CC(C)C)C(=O)O; NMeNva = CCC[C@H](NC)C(=O)O; Morpholide = C1CN(*)CCO1; NMeA = CN[C@@H](C)C(=O)O; Ac5c = NC1(C(=O)O)CCCC1; Aze = O=C(O)[C@@H]1CCN1; Ac4c = NC1(C(=O)O)CCC1; NPrGly = CCCNCC(=O)O; NEtG = CCNCC(=O)O; Sar = CNCC(=O)O
Experiments:
[1] = molecular target: GDP-bound NRAS wild-type protein (Homo sapiens, UniProt P01111); assay: Binding to NRAS by surface plasmon resonance (SPR), KD and KD ratio to KRAS
GDP-bound NRAS wild-type protein, sequence (P01111 whole entry): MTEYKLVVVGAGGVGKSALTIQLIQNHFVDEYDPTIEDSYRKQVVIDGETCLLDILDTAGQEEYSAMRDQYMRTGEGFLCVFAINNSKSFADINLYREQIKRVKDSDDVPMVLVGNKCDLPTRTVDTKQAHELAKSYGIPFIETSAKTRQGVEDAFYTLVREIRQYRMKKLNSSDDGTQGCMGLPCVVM
Method in brief: (§1)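 Each cycle, GDP-bound biotin-Avi RAS was captured (~100–300 RU), compound concentrations were injected low to high for 75 s each at 100 µL/min, then the chip was regenerated. Buffer: HBS pH 7.4, 10 mM MgCl2, 10 µM GDP, 1 mM DTT, 4% DMSO; 30°C. KD from a 1:1 binding model.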

HRAS wild-type protein = HRAS wild-type protein (Homo sapiens, UniProt P01112); assay: Binding to HRAS by surface plasmon resonance (SPR), KD and KD ratio to KRAS
HRAS wild-type protein, sequence (P01112 whole entry): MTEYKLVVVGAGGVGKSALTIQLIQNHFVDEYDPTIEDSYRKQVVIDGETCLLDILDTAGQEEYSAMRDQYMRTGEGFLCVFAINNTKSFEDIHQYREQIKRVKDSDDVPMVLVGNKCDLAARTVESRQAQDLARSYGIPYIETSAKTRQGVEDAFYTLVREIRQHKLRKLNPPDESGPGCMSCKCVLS
Method in brief: as §1

[2] = test system: human lung cancer strain NCI-H441; assay type: cell-based
Method in brief: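 Signal came from […] measured per well once the reagent was added. Beforehand, cells were cultured at 37°C and 5% carbon dioxide on a compound series serially diluted in dimethyl sulfoxide.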

[3] = ratio of the KD value with respect to GDP-bound NRAS wild-type protein to the KD value with respect to KRAS
[4] = ratio of the KD value with respect to HRAS wild-type protein to the KD value with respect to KRAS
[5] = ratio of KD for GDP-bound NRAS wild-type protein to KD for KRAS
[6] = ratio of KD for HRAS wild-type protein to KD for KRAS

Row | IC50 [2] | Structure (SMILES) | NRAS /KRAS [1, 3] | HRAS /KRAS (HRAS wild-type protein; [4]) | NRAS /KRAS [1, 5] | HRAS /KRAS (HRAS wild-type protein; [6]) | NRAS /KRAS ([1]; ratio of KD value for GDP-bound NRAS wild-type protein to KD value for KRAS (SPR)) | HRAS /KRAS (HRAS wild-type protein; ratio of KD value for HRAS wild-type protein to KD value for KRAS (SPR))
1 | 14.7 nM | CCC[C@H]1C(=O)N[C@@H]([C@@H](C)CC)C(=O)N(C)[C@@H](C)C(=O)N2CC[C@H]2C(=O)N(CCC)[C@@H](Cc2ccc(C(F)(F)F)cc2)C(=O)N(C)CC(=O)N[C@@H](CCc2ccc(C(F)(F)F)c(Cl)c2)C(=O)N2CCC[C@H]2C(=O)NC2(CCC2)C(=O)N(C)[C@@H](C(CC)CC)C(=O)N(C)[C@H](C(=O)N2CCOCC2)CC(=O)N1C [PP1959] ([NMeNva]I[NMeA][Aze][NPrPhe(4-CF3)][Sar][hPhe(3-Cl-4-CF3)]P[Ac4c][NMeNva(3-Et)][NMeD]-Morpholide; lactam N-11) | C (A compound having a KD ratio of 0.1 or more and less than 3 is denoted as C) | B (a compound having 3 or more and less than 10 is denoted as B) |  |  |  | 
2 | 88.2 nM | CCCN1CC(=O)NC2(CCCC2)C(=O)N(C)[C@@H](C2CCCC2)C(=O)N(C)[C@H](C(=O)N2CCOCC2)CC(=O)N(C)[C@@H](CC(C)C)C(=O)N[C@@H]([C@@H](C)CC)C(=O)N(CC)CC(=O)N(C)CC(=O)N(CCC)[C@@H](Cc2ccc(C(F)(F)F)cc2)C(=O)N(C)CC(=O)N[C@@H](CCc2ccc(C(F)(F)F)c(Cl)c2)C1=O [PP0301] ([NMeL]I[NEtG][Sar][NPrPhe(4-CF3)][Sar][hPhe(3-Cl-4-CF3)][NPrGly][Ac5c][NMeGly(cPent)][NMeD]-Morpholide; lactam N-11) |  |  | B (a compound having 3 or more and less than 10 is denoted as B) | C (A compound having a KD ratio of 0.1 or more and less than 3 is denoted as C) |  | 
3 | 19.8 nM | CCO[C@@H]1C[C@H]2C(=O)NC3(CCC3)C(=O)N(C)[C@@H](C3CCCC3)C(=O)N(C)[C@H](C(=O)N(C)C)CC(=O)N(C)[C@@H](Cc3ccccc3)C(=O)N[C@@H]([C@@H](C)CC)C(=O)N(C)CC(=O)N(C)[C@H]3C/C=C\CCN(C3=O)[C@@H](Cc3ccc(C(F)(F)F)cc3)C(=O)N(C)CC(=O)N[C@@H](CCc3cc(F)c(C(F)(F)F)c(F)c3)C(=O)N2C1 [PP1116] |  |  | A (a compound having 10 or more and less than 20 is denoted as A) | A (a compound having 10 or more and less than 20 is denoted as A) |  | 
4 | 8.1 nM | CCCN1C(=O)[C@@H]2CCN2C(=O)CN(C)C(=O)[C@H]([C@@H](C)CC)NC(=O)[C@H](CC(C)C)N(C)C(=O)C[C@@H](C(=O)N2CCOCC2)N(C)C(=O)[C@H](C2CCCC2)N(C)C(=O)C2(CCCC2)NC(=O)[C@@H]2CCCN2C(=O)[C@H](CCc2ccc(C(F)(F)F)c(Cl)c2)NC(=O)CN(C)C(=O)[C@@H]1Cc1ccc(C(F)(F)F)cc1 [PP0156] ([NMeL]I[Sar][Aze][NPrPhe(4-CF3)][Sar][hPhe(3-Cl-4-CF3)]P[Ac5c][NMeGly(cPent)][NMeD]-Morpholide; lactam N-11) |  |  | C (A compound having a KD ratio of 0.1 or more and less than 3 is denoted as C) | B (a compound having 3 or more and less than 10 is denoted as B) |  | 
5 | 5.7 nM | CCCN1C(=O)[C@@H]2CCN2C(=O)[C@H](C)N(C)C(=O)[C@H]([C@@H](C)CC)NC(=O)[C@H](CC(C)C)N(C)C(=O)C[C@@H](C(=O)N2CCOCC2)N(C)C(=O)[C@H](C2CCCC2)N(C)C(=O)C2(CCCC2)NC(=O)[C@@H]2CCCN2C(=O)[C@H](CCc2ccc(C(F)(F)F)c(Cl)c2)NC(=O)CN(C)C(=O)[C@@H]1CC1CCC(F)(F)CC1 [PP0527] ([NMeL]I[NMeA][Aze][X45][Sar][hPhe(3-Cl-4-CF3)]P[Ac5c][NMeGly(cPent)][NMeD]-Morpholide; lactam N-11) | C (A compound having a KD ratio of 0.1 or more and less than 3 is denoted as C) | C (A compound having a KD ratio of 0.1 or more and less than 3 is denoted as C) |  |  |  | 
6 | 73.2 nM | CCC[C@H]1C(=O)N[C@@H]([C@@H](C)CC)C(=O)N(C2CC2)CC(=O)N(C)[C@H]2C/C=C\CCN(C2=O)[C@@H](CC2CCC(F)(F)CC2)C(=O)N(C)CC(=O)N[C@@H](CCc2ccc(C(F)(F)F)c(OC)c2)C(=O)N2C[C@H](OCC)C[C@H]2C(=O)N(C)C2(CCC2)C(=O)N(C)[C@@H](C(CC)CC)C(=O)N(C)[C@H](C(=O)N(C)C)CC(=O)N1C [PP2349] | A (a compound having 10 or more and less than 20 is denoted as A) | A (a compound having 10 or more and less than 20 is denoted as A) |  |  |  | 
7 | 126 nM | CCC(CC)[C@H]1C(=O)N(C)[C@H](C(=O)N(C)C)CC(=O)N(C)[C@@H](COC)C(=O)N[C@@H]([C@@H](C)CC)C(=O)N(C)CC(=O)N(C)[C@H]2C/C=C\CCN(C2=O)[C@@H](Cc2ccc(C(F)(F)F)cc2)C(=O)N(C)CC(=O)N[C@@H](CCc2cc(F)c(C(F)(F)F)c(F)c2)C(=O)N2CC[C@H]2C(=O)NC2(CC(C)(C)C2)C(=O)N1C [PP2918] |  |  | AA (a compound having 20 or more is denoted as AA) | A (a compound having 10 or more and less than 20 is denoted as A) |  | 
8 | 1.6 nM | CCCN1C(=O)CN(C)C(=O)CN(C)C(=O)[C@H]([C@@H](C)CC)NC(=O)[C@H](CC(C)C)N(C)C(=O)C[C@@H](C(=O)N2CCOCC2)N(C)C(=O)[C@H](C2CCCC2)N(C)C(=O)C2(CCCC2)NC(=O)[C@@H]2CC(C)(C)CN2C(=O)[C@H](CCc2ccc(C(F)(F)F)c(Cl)c2)NC(=O)CN(C)C(=O)[C@@H]1Cc1ccc(C(F)(F)F)cc1 [PP0446] ([NMeL]I[Sar][Sar][NPrPhe(4-CF3)][Sar][hPhe(3-Cl-4-CF3)][Pro(4,4-Me2)][Ac5c][NMeGly(cPent)][NMeD]-Morpholide; lactam N-11) | B (a compound having 3 or more and less than 10 is denoted as B) | C (A compound having a KD ratio of 0.1 or more and less than 3 is denoted as C) |  |  |  | 
9 | 19.7 nM | CC[C@H](C)[C@@H]1NC(=O)[C@H](CC(C)C)N(C)C(=O)C[C@@H](C(=O)N2CCOCC2)N(C)C(=O)[C@H](C2CCCC2)N(C)C(=O)C2(CCC2)NC(=O)[C@@H]2C[C@@H](OCCC(F)(F)F)CN2C(=O)[C@H](CCc2cc(F)c(C(F)(F)F)c(F)c2)NC(=O)CN(C)C(=O)[C@H](Cc2ccc(C(F)(F)F)cc2)N2CCCC[C@@H](C2=O)N(C)C(=O)CN(C)C1=O [PP0998] |  |  | B (a compound having 3 or more and less than 10 is denoted as B) | B (a compound having 3 or more and less than 10 is denoted as B) |  | 
10 | 28.9 nM | CCC[C@H]1C(=O)N[C@@H]([C@@H](C)CC)C(=O)N(C)CC(=O)N(C)[C@H]2C/C=C\CCN(C2=O)[C@@H](Cc2ccc(C(F)(F)F)cc2)C(=O)N(C)CC(=O)N[C@@H](CCc2ccc(CC)c(Cl)c2)C(=O)N2C[C@H](OCC)C[C@H]2C(=O)NC2(CC(C)(C)C2)C(=O)N(C)[C@@H](C2CCCC2)C(=O)N(C)[C@H](C(=O)N(C)C)CC(=O)N1C [PP2848] |  |  | A (a compound having 10 or more and less than 20 is denoted as A) | A (a compound having 10 or more and less than 20 is denoted as A) |  | 
11 | 96.9 nM | CCO[C@@H]1C[C@H]2C(=O)NC3(CCC3)C(=O)N(C)[C@@H](C3CCCC3)C(=O)N(C)[C@H](C(=O)N(C)C)CC(=O)N(C)[C@@H](CC)C(=O)N[C@@H]([C@@H](C)CC)C(=O)N3C[C@H](OCC)C[C@H]3C(=O)N(C)[C@H]3C/C=C\CCN(C3=O)[C@@H](Cc3ccc(C(F)(F)F)cc3)C(=O)N(C)CC(=O)N[C@@H](CCc3cc(F)c(C(F)(F)F)c(F)c3)C(=O)N2C1 [PP1057] |  |  | A (a compound having 10 or more and less than 20 is denoted as A) | B (a compound having 3 or more and less than 10 is denoted as B) |  | 
12 | 54.5 nM | CC[C@H](C)[C@@H]1NC(=O)[C@H](CC(C)C)N(C)C(=O)C[C@@H](C(=O)N2CCOCC2)N(C)C(=O)[C@H](C2CCCC2)N(C)C(=O)C2(CCCC2)NC(=O)[C@@H]2CCCN2C(=O)[C@H](CCc2ccc(C(F)(F)F)c(Cl)c2)NC(=O)CN(CC)C(=O)[C@H](Cc2ccc(C)cc2)N(CC)C(=O)CN(C)C(=O)CN(C)C1=O [PP0028] ([NMeL]I[Sar][Sar][NEtPhe(4-Me)][NEtG][hPhe(3-Cl-4-CF3)]P[Ac5c][NMeGly(cPent)][NMeD]-Morpholide; lactam N-11) |  |  | C (A compound having a KD ratio of 0.1 or more and less than 3 is denoted as C) | C (A compound having a KD ratio of 0.1 or more and less than 3 is denoted as C) |  | 
13 | 10.3 nM | CC[C@H](C)[C@@H]1NC(=O)[C@H](CC2CC2)N(C)C(=O)C[C@@H](C(=O)N(C)C)N(C)C(=O)[C@H](C2CCCC2)N(C)C(=O)C2(CCC2)NC(=O)[C@@H]2C[C@@H](C(F)(F)F)CN2C(=O)[C@H](CCc2cc(F)c(C(F)(F)F)c(F)c2)NC(=O)CN(C)C(=O)[C@H](Cc2ccc(C(F)(F)F)cc2)N2CC/C=C\C[C@@H](C2=O)N(C)C(=O)CN(C)C1=O [PP1498] |  |  |  |  | A (a compound having 10 or more and less than 20 is denoted as A) | A (a compound having 10 or more and less than 20 is denoted as A)
14 | 106 nM | CCC(CC)[C@H]1C(=O)N(C)[C@H](C(=O)N(C)C)CC(=O)N(C)[C@@H](COC)C(=O)N[C@@H]([C@@H](C)CC)C(=O)N(C)CC(=O)N(C)[C@H]2C/C=C\CCN(C2=O)[C@@H](Cc2ccc(C(F)(F)F)cc2)C(=O)N(C)CC(=O)N[C@@H](CCc2cc(F)c(C(F)(F)F)c(F)c2)C(=O)N2CCCC[C@H]2C(=O)NC2(CC(C)(C)C2)C(=O)N1C [PP2916] |  |  | A (a compound having 10 or more and less than 20 is denoted as A) | A (a compound having 10 or more and less than 20 is denoted as A) |  | 
